Assay results taken from patent US20260193173A1, “AMINO ACID-BENZOIC ACID OLIGOMERS AND METHODS OF USE THEREOF FOR TREATING CANCER” (Board of Regents, The University of Texas System, priority 2022, published 2026).

Columns and labels:
[1] = tested on: DU145 prostate cancer cells; assay: MTT assay, growth inhibition of prostate cancer cell line DU145; type: cell-based; settings: Homo sapiens, DU-145, incubated with DU145 cells for 72 hours
Method: FIGS. 3A-3C show % inhibition (determined by MTT assay) of disclosed compounds on prostate cancer cell line DU145. Compounds were incubated with DU145 cells for 72 hours, showing strong cell growth inhibition with IC50 of 0.15-0.7 μM.

Bcl-2 = Bcl-2 (Homo sapiens, UniProt P10415); assay: Bcl-2 protein binding, fluorescence polarization assay
Source text: IC50 values were in the submicromolar range as determined by fluorescence polarization assay.

Sequence of Bcl-2 (P10415 whole entry): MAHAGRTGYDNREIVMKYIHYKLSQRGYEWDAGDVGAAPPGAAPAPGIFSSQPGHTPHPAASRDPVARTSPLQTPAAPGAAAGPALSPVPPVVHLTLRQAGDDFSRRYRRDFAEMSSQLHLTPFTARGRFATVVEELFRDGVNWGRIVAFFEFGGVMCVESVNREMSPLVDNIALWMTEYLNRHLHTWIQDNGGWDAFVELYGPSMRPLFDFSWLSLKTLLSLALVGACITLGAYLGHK

IC50 [1] [µM] | IC50 (Bcl-2) [µM] | SMILES
0.702 | 0.599 | COc1cc(C(=O)NC(Cc2ccc(O)cc2)C(=O)Nc2ccc(C(=O)NC(CCSC)C(=O)Nc3ccc(C(N)=O)cc3OCc3ccccc3)cc2OCC(C)C)ccc1N (centres unmarked) [Compound B12]
0.779 | 1.96 | CCC(C)C(NC(=O)c1ccc(N)c(OC)c1)C(=O)Nc1ccc(C(=O)NC(CCSC)C(=O)Nc2ccc(C(N)=O)cc2OCC(C)C)cc1OCC(C)C (centres unmarked) [Compound B10]
0.3 | 1.54 | CCC(C)C(NC(=O)c1ccc(NC(=O)C(NC(=O)c2ccc(N)c(OC)c2)C(C)CC)c(OCC(C)C)c1)C(=O)Nc1ccc(C(N)=O)cc1OCc1ccccc1 (centres unmarked) [Compound B9]
0.12 | 1.08 | CC(C)COc1cc(C(=O)NC(CS)C(=O)Nc2ccc(C(=O)NC(Cc3ccccc3)C(=O)Nc3ccc(C(N)=O)cc3OCC(C)C)cc2OCC(C)C)ccc1N (centres unmarked) [Compound B11]
